Laboratory results reported in PMC8149352 (Cancer Chemotherapy and Pharmacology, 2021).
Values joined by “and” are separate entries in the source; they are usually repeats but may differ in a detail not shown here. Equal values may be shown once. Read-outs that look alike come from different tables or passages of the source.

Key:
[1] = Part B: effect of strong CYP3A inhibitor itraconazole on single-dose pamiparib plasma PK (phase 1 DDI study); assay type: in vivo, human (patients with solid tumors); settings: for half-life / AUC(0-inf) / AUC(0-t) / Tmax / Cmax: human; for half-life / AUC(0-inf) / AUC(0-t) / Tmax: plasma, oral; for AUC(0-inf): N = 12, read-out: pamiparib AUC0-inf, GLSM (% CV); for AUC(0-t): N = 12, read-out: pamiparib AUC0-tlast, GLSM (% CV); for Tmax: N = 12, read-out: pamiparib tmax, median (range); for Cmax: N = 12, plasma, read-out: pamiparib Cmax, GLSM (% CV)
Experimental: Part B of the core phase assessed the effect of the strong CYP3A inhibitor itraconazole on the PK of pamiparib in patients with solid tumors. All patients received a single dose of oral pamiparib 20 mg on days 1 and 7, and oral itraconazole 200 mg QD on days 3–8. The 20-mg pamiparib dose, the lowest dose strength available and one-sixth of the highest phase 1 dose (120 mg), was deemed sufficient to cover the plasma exposure increase due to complete blockade of CYP3A by itraconazole. Part B patients fasted for at least 8 h before and at least 4 h after pamiparib administration, except for day 7 upon which itraconazole administration occurred ~ 30 min after completing a meal and pamiparib administration followed within 5 min of itraconazole administration. Blood samples for PK analysis were obtained on days 1 and 7 at the same time points listed above for Part A. After completing the core phase in Part A and Part B, patients were offered participation in the extension phase, in which they were to receive pamiparib PO BID in 28-day cycles until disease progression, unacceptable toxicity, withdrawal of consent, or any other reason for discontinuation. […]
(§1) The safety population included all patients who received at least one dose of pamiparib. […] Plasma PK parameters were calculated from pamiparib concentration–time profiles using standard noncompartmental methods. PK parameters were calculated using Phoenix WinNonlin v6.4 or higher (Certara, Princeton, NJ, USA). […] Data for each treatment part were analyzed separately. Log-transformed AUC and Cmax values were analyzed using a linear mixed-effect model analysis assuming a fixed effect for treatment and a random effect for patients. The study design called for ~ 24 patients (12 in each part) to be enrolled to ensure at least 20 (10 in each part) completed the study. This sample size was based on the precedent set by other PK studies of a similar nature and was not based on power calculations.

[2] = parameters: method as in not given; settings: in vitro and animal studies; ref not given; cited from earlier work
[3] = Part A safety: adverse events (NCI CTCAE v5.0), safety population; assay type: in vivo, human (patients with advanced solid tumors)
Experimental: (§2) This was an open-label, parallel-group, phase 1 study consisting of a 2-part core phase and an extension phase. Only results for the core phases are reported herein (Supplementary Fig. 1). […] Blood samples for PK analysis were obtained on days 1 and 10 at predose, and at 0.5, 1, 2, 4, 6, 9, 12, 24, and 48 h postdose. Pamiparib plasma concentrations were determined using a validated liquid chromatography–mass spectrometry/mass spectrometry method (lower limit of quantification 1.0 ng/mL) at Covance Laboratory Services (Salt Lake City, Utah).
(§3) Adverse events (AEs) were monitored throughout the study and were graded according to the National Cancer Institute Common Terminology Criteria v5.0.
as §1

[4] = Part A: effect of strong CYP3A inducer rifampin on single-dose pamiparib plasma PK (phase 1 DDI study); assay type: in vivo, human (patients with advanced solid tumors); settings: for Tmax: read-out: pamiparib tmax, median (range)
Experimental: as §2, with “Utah). […]” for “Utah).”
as §1

[5] = test system: poly(ADP-ribose) synthesis in peripheral blood mononuclear cells; parameters: method as in earlier work; settings: pamiparib doses of 10 mg or higher; cited from earlier work
[6] = test system: cytochromes P450 3A (CYP3A) and P450 2C8; parameters: method as in unpublished data; settings: in vitro phenotyping study; ref unpublished data; cited from earlier work
[7] = Part B safety: adverse events (NCI CTCAE v5.0), safety population; assay type: in vivo, human (patients with solid tumors)
Experimental: Part B of the core phase assessed the effect of the strong CYP3A inhibitor itraconazole on the PK of pamiparib in patients with solid tumors. All patients received a single dose of oral pamiparib 20 mg on days 1 and 7, and oral itraconazole 200 mg QD on days 3–8. The 20-mg pamiparib dose, the lowest dose strength available and one-sixth of the highest phase 1 dose (120 mg), was deemed sufficient to cover the plasma exposure increase due to complete blockade of CYP3A by itraconazole. Part B patients fasted for at least 8 h before and at least 4 h after pamiparib administration, except for day 7 upon which itraconazole administration occurred ~ 30 min after completing a meal and pamiparib administration followed within 5 min of itraconazole administration. Blood samples for PK analysis were obtained on days 1 and 7 at the same time points listed above for Part A. After completing the core phase in Part A and Part B, patients were offered participation in the extension phase, in which they were to receive pamiparib PO BID in 28-day cycles until disease progression, unacceptable toxicity, withdrawal of consent, or any other reason for discontinuation.
as §3, §1

P-glycoprotein = test system: P-glycoprotein; parameters: method as in PMID 32652442; settings: cited from earlier work
[8] = parameters: method as in earlier work; settings: cited from earlier work
[9] = pamiparib 20 mg alone, day 1, reference
[10] = pamiparib 20 mg day 7 with itraconazole 200 mg QD, test
[11] = Part A (N = 12), by treatment period
[12] = Part A, rifampin 600 mg QD coadministration
[13] = Part B (N = 13; N = 12 for pamiparib with itraconazole), by treatment period

half-life ([1]; 20 mg, pamiparib 20 mg alone, day 1, reference, N = 12, read-out: pamiparib t1/2, median (range) (converted)): 9.3 h
AUC(0-inf) [1, 9]: 8440 ng·h/mL
AUC(0-t) [1, 9]: 7840 ng·h/mL
Tmax [1, 9]: 2 h
AUC(0-inf) [1, 10]: 8380 ng·h/mL
AUC(0-t) [1, 10]: 7790 ng·h/mL
half-life ([1]; pamiparib 20 mg day 7 with itraconazole 200 mg QD, test, N = 12, read-out: pamiparib t1/2, median (range) (converted)): 11.2 h
Tmax [1, 10]: 1 h
half-life ([1]; pamiparib 20 mg in combination with itraconazole, read-out: pamiparib mean t1/2 (converted)): 12 h
Cmax ([1]; single oral pamiparib 20 mg alone, day 1, reference): 665 ng/mL
Cmax ([1]; single oral pamiparib 20 mg on day 7 with itraconazole 200 mg QD (days 3-8), test): 699 ng/mL
pamiparib mean t1/2 ([1]; pamiparib 20 mg alone): 11.9 h
reduction of pamiparib plasma exposure (AUC) with rifampin coadministration ([4]; Part A, AUC0-tlast to AUC0-inf): 38–43%
reduction of pamiparib AUC0-inf (geometric mean) with rifampin versus day 1 [4, 12]: ~43%
reduction of pamiparib AUC0-tlast (geometric mean) with rifampin versus day 1 [4, 12]: ~ 38% and 38%
half-life ([4]; human, plasma, oral, 60 mg, Part A, pamiparib 60 mg alone, day 1, reference, N = 9, read-out: pamiparib t1/2, median (range) (converted)): 13.4 h
half-life ([4]; human, plasma, oral, 60 mg, Part A, pamiparib 60 mg alone, read-out: pamiparib mean t1/2 (converted)): 12.5 h
half-life ([4]; human, plasma, oral, Part A, pamiparib 60 mg day 10 with rifampin 600 mg QD, test, N = 11, read-out: pamiparib t1/2, median (range) (converted)): 7.7 h
half-life ([4]; human, plasma, oral, Part A, pamiparib 60 mg in combination with rifampin, read-out: pamiparib mean t1/2 (converted)): 7.94 h
AUC(0-inf) ([4]; human, plasma, oral, Part A, pamiparib 60 mg alone, day 1, reference, N = 9, read-out: pamiparib AUC0-inf, GLSM (% CV)): 29500 ng·h/mL
AUC(0-t) ([4]; human, plasma, oral, Part A, pamiparib 60 mg alone, day 1, reference, N = 11, read-out: pamiparib AUC0-tlast, GLSM (% CV)): 28800 ng·h/mL
Tmax ([4]; human, plasma, oral, Part A, pamiparib 60 mg alone, day 1, reference, N = 11): 2 h
Tmax ([4]; human, plasma, oral): 2 h
Cmax ([4]; human, Part A, single oral pamiparib 60 mg alone, day 1, reference, N = 11, plasma, read-out: pamiparib Cmax, GLSM (% CV)): 1990 ng/mL
SMILES: C[C@]12CCCN1CC1=NNC(=O)c3cc(F)cc4[nH]c2c1c34 [Pamiparib]
clastogenicity [2]: clastogenic activity
All TEAEs (any grade), patients [3, 11]: 1 (8.3) n (%)
Any treatment-related TEAE, patients [3, 11]: 0 n (%)
Grade >= 3 TEAE, patients [3, 11]: 0 n (%)
Serious AE, patients [3, 11]: 0 n (%)
Treatment-related TEAE related to both, patients [3, 11]: 0 n (%)
Treatment-related TEAE related to pamiparib only, patients [3, 11]: 0 n (%)
Treatment-related TEAE related to rifampin only, patients [3, 11]: 0 n (%)
tolerability ([3]; single dose 60 mg pamiparib alone or coadministered with 600 mg rifampin): well tolerated
sustained inhibition of poly(ADP-ribose) synthesis in peripheral blood mononuclear cells [5]: ~ 80%
enzymes mediating metabolism [6]: primarily mediated by cytochromes P450 3A (CYP3A) and P450 2C8
All TEAEs (any grade), patients [7, 13]: 2 (15.4) n (%)
Any treatment-related TEAE, patients [7, 13]: 1 (7.7) n (%)
Grade >= 3 TEAE, patients [7, 13]: 0 n (%)
Serious AE, patients [7, 13]: 0 n (%)
Treatment-related TEAE related to both, patients [7, 13]: 0 n (%)
Treatment-related TEAE related to itraconazole only, patients [7, 13]: 0 n (%)
Treatment-related TEAE related to pamiparib only, patients [7, 13]: 1 (7.7) n (%)
Serious AE related to both, patients ([7]; Part B, by treatment period): 0 n (%)
Serious AE related to itraconazole only, patients ([7]; Part B, by treatment period): 0 n (%)
Serious AE related to pamiparib only, patients ([7]; Part B, by treatment period): 0 n (%)
tolerability ([7]; single dose 20 mg pamiparib alone or coadministered with 200 mg itraconazole): well tolerated
P-glycoprotein substrate status (P-glycoprotein): not a substrate of P-glycoprotein
accumulation ratio for AUC (95% CI) ([8]; 60 mg BID): 2.37 (95% CI, 1.61–3.50)
accumulation ratio for Cmax (95% CI) ([8]; 60 mg BID): 1.99 (95% CI, 1.47–2.69)
geometric mean half-life ([8]; 60 mg BID): 13.5 h
tolerability ([8]; first-in-human study): well tolerated
median time to maximum concentration (tmax) ([8]; first-in-human study, oral): 1 to 2 h
anti-tumor activity ([8]; patients with high-grade epithelial non-mucinous ovarian cancer): preliminary anti-tumor activity
